# Experimental data: article PMC7997578, “Design, Synthesis, Dynamic Docking, Biochemical Characterization, and in Vivo Pharmacokinetics Studies of Novel Topoisomerase II Poisons with Promising Antiproliferative Activity” (Journal of Medicinal Chemistry, 2020)
# Experiment: plasma protein binding (rapid equilibrium dialysis), human
# Assay type: in vitro ADME
# Conditions: pH 7.4
# Experimental: 3. Aqueous t herm odynam ic solu bili ty
# The thermodynamic solubility of 3f was determined by addition of Phosphate Buffered Saline (PBS) at pH 7. 4 to an exces s of solid compound.
# The assay was performed by incubation of an aliquot of 2. 5mg of test compound in 500µL of PBS at pH 7. 4. The suspension was shaken at 300 RPM for 24h at 25°C. At the end of the incubation period, the saturated solution was filtered and analyzed by UPLC/MS for the quantification of dissolved compound (in µM) by UV at a specific wavelength ( λmax of the test compound). The analyses were performed on a Waters ACQUITY UPLC/MS SQD system equipped with an ESI ion source. The analyses were run on an ACQUITY UPLC BEH C 18 column (50x2. 1mmI D, particle size 1. 7µm) with a VanGuard BEH C 18 pr e-column (5x2. 1mmID, particle size 1. 7µm), using H 2O + 0. 1% HCOOH (A) and CH 3CN + 0. 1% HCOOH (B) as mobile phase.
# 4. Plasm a Protei n Bindi ng
# The assay was conducted in triplicate in human and mouse plasma. An appropriate volume of plasma was spiked with a known amount of 10mM DMSO stock solution of the test compound, thus reaching the incubation concentrations of 0. 5, 1 and 5 µM. […] At this point, the supernatants were ready for injections in the UPLC -MS/ MS system. […] Plasma protein binding was calculated applying appropriate corrections to compensate for dilutions during sampling.
compound,measurement,value
"O=C(Nc1cccc(OC(F)(F)F)c1)c1c(O)n(-c2ccccc2)c(=S)n(-c2ccccc2)c1=O [3f, 6-Hydroxy-4-oxo-1,3-diphenyl-2-thioxo-N-(3-(trifluoromethoxy)phenyl)-1,2,3,4-tetrahydropyrimidine-5-carboxamide]",fraction unbound at 3 h,< 0.01
